Experimental data from article PMC9890130 (Clinical cancer research : an official journal of the …, 2023).
Bridge positions count the residues as written; N and C are the ends. Square brackets hold non-standard residues; d marks the D form. Peptide text beside a SMILES is read from it. * marks the point of attachment. DOTA = O=C(O)CN1CCN(CC(=O)O)CCN(CC(=O)*)CCN(CC(=O)O)CC1; Trp(1-CH2COOH) = N[C@@H](Cc1cn(CC(=O)O)c2ccccc12)C(=O)O; Hyp = O=C(O)[C@@H]1C[C@@H](O)CN1; NMeNle = CCCC[C@H](NC)C(=O)O; NMeA = CN[C@@H](C)C(=O)O

Columns and labels:
[1] = test system: MDAMB231, BFTC909, SUM149, and SCaBER cells; test: In vitro binding assay, blocking with non-radioactive DK223; type: cell-based, human; settings: 1 μM non-radioactive DK223; P<0.0001
Human PD-L1 Fc-tagged = Human PD-L1 Fc-tagged (Homo sapiens, UniProt Q9NZQ7); test: Surface plasmon resonance; type: binding; settings: read-out: KD (affinity for PD-L1); SPR, Biacore T200, CM5 chip, 25°C, 1:1 kinetics model; n=3
[2] = predicted residence time in human organ from mouse pharmacokinetic data
[3] = In vivo stability of [^68Ga]Ga-DK223; set-up: species or system mice; settings: urine collected at 60 min after i.v. injection, radio-HPLC; n=3
MDAMB231 xenografts [4] = settings: NSG, mouse, in vivo, iv, 1 h
[5] = Ex vivo biodistribution in SCaBER xenografts; set-up: species or system NSG mice; settings: NSG, mouse, tumor, iv, 50 uCi, total radioactivity
SUM149 cells = test: In vitro binding assay with [^68Ga]Ga-DK223; type: cell-based, human; settings: 1×10^6 cells, ~1 μCi, 45 min at 4°C
in vivo = settings: NSG, mouse, iv, total radioactivity
SCaBER cells = test: In vitro binding assay with [^68Ga]Ga-DK223; type: cell-based, human; settings: 1×10^6 cells, ~1 μCi, 45 min at 4°C
MDAMB231 xenografts [6] = test: Ex vivo biodistribution in mice with MDAMB231 xenografts; settings: NSG mice bearing MDAMB231 tumors, n=4-5
[7] = Ex vivo biodistribution in BFTC909 xenografts; set-up: species or system NSG mice; settings: NSG, mouse, tumor, iv, 50 uCi, total radioactivity
[8] = %ID/g [^68Ga]Ga-DK223, Adrenals
[9] = %ID/g [^68Ga]Ga-DK223, Pancreas

CCCC[C@H]1C(=O)N(C)[C@@H](CCCC)C(=O)N[C@@H](CCCCNC(=O)CN2CCN(CC(=O)O)CCN(CC(=O)O)CCN(CC(=O)O)CC2)C(=O)N[C@H](C(=O)NCC(N)=O)CSCC(=O)N[C@@H](Cc2ccc(O)cc2)C(=O)N(C)[C@@H](C)C(=O)N[C@@H](CC(N)=O)C(=O)N2CCC[C@H]2C(=O)N[C@@H](Cc2c[nH]cn2)C(=O)N[C@@H](CCC(=O)O)C(=O)N2C[C@H](O)C[C@H]2C(=O)N[C@@H](Cc2c[nH]c3ccccc23)C(=O)N[C@@H](CO)C(=O)N[C@@H](Cc2cn(CC(=O)O)c3ccccc23)C(=O)N1C [DK223] ({CH2CO}-Y[NMeA]NPHE[Hyp]WS[Trp(1-CH2COOH)][NMeNle][NMeNle]K(DOTA)CG-NH2; thioether N-14)
[^68Ga]Ga-DK223 uptake in cells incubated with non-radioactive DK223 [1]: significantly reduced
Kd (Human PD-L1 Fc-tagged): 1.01 ± 0.83 nM

CCCC[C@H]1C(=O)N(C)[C@@H](CCCC)C(=O)N[C@@H](CCCCNC(=O)CN2CCN(CC(=O)O)CCN(CC(=O)O)CCN(CC(=O)O)CC2)C(=O)N[C@H](C(=O)NCC(N)=O)CSCC(=O)N[C@@H](Cc2ccc(O)cc2)C(=O)N(C)[C@@H](C)C(=O)N[C@@H](CC(N)=O)C(=O)N2CCC[C@H]2C(=O)N[C@@H](Cc2c[nH]cn2)C(=O)N[C@@H](CCC(=O)O)C(=O)N2C[C@H](O)C[C@H]2C(=O)N[C@@H](Cc2c[nH]c3ccccc23)C(=O)N[C@@H](CO)C(=O)N[C@@H](Cc2cn(CC(=O)O)c3ccccc23)C(=O)N1C [[^68Ga]Ga-DK223, metal not drawn] ({CH2CO}-Y[NMeA]NPHE[Hyp]WS[Trp(1-CH2COOH)][NMeNle][NMeNle]K(DOTA)CG-NH2; thioether N-14)
Residence time, Adrenals [2]: 0.00014 h
Residence time, Bladder [2]: 0.00187 h
Residence time, Blood [2]: 0.1753 h
Residence time, Brain [2]: 0.00118 h
Residence time, Femur [2]: 0.03956 h
Residence time, Heart [2]: 0.0151 h
Residence time, Kidney [2]: 0.0337 h
Residence time, Large Intestine (with contents) [2]: 0.00099 h
Residence time, Liver [2]: 0.01633 h
Residence time, Lung [2]: 0.03245 h
Residence time, Muscle [2]: 0.06168 h
Residence time, Ovaries [2]: 0.00011 h
Residence time, Pancreas [2]: 0.00052 h
Residence time, Small Intestine (with contents) [2]: 0.00453 h
Residence time, Spleen [2]: 0.00129 h
Residence time, Stomach (with contents) [2]: 0.00072 h
Residence time, Thymus [2]: 0.00047 h
Residence time, Uterus [2]: 0.00114 h
in vivo stability, urine [3]: no metabolic cleavage
%ID/g [^68Ga]Ga-DK223, Adrenals (MDAMB231 xenografts [4]): 4.74 ± 3.64 %ID/g
%ID/g [^68Ga]Ga-DK223, Blood (MDAMB231 xenografts [4]): 3.05 ± 0.11 %ID/g
%ID/g [^68Ga]Ga-DK223, Femur (MDAMB231 xenografts [4]): 0.89 ± 0.06 %ID/g
%ID/g [^68Ga]Ga-DK223, Heart (MDAMB231 xenografts [4]): 0.95 ± 0.07 %ID/g
%ID/g [^68Ga]Ga-DK223, Lung (MDAMB231 xenografts [4]): 4.7 ± 0.42 %ID/g
%ID/g [^68Ga]Ga-DK223, Muscle (MDAMB231 xenografts [4]): 0.36 ± 0.04 %ID/g
%ID/g [^68Ga]Ga-DK223, Tumor (MDAMB231 xenografts [4]): 15.21 ± 1.43 %ID/g
%ID/g [^68Ga]Ga-DK223, Ovaries (MDAMB231 xenografts [4]; female): 0.93 ± 0.08 %ID/g
tissue uptake at 1 h [5]: < 3 %ID/g
in vitro uptake (SUM149 cells): less than 2 %IA
tissue uptake at 0.5 h (in vivo; [8]): 2.22 ± 0.19 %ID/g
tissue uptake at 1.5 h (in vivo; [8]): 0.18 ± 0.03 %ID/g
tissue uptake at 3 h (in vivo; [8]): 0.16 ± 0.11 %ID/g
tissue uptake at 0.5 h (in vivo; %ID/g [^68Ga]Ga-DK223, Bladder): 4.09 ± 0.49 %ID/g
tissue uptake at 1 h (in vivo; %ID/g [^68Ga]Ga-DK223, Bladder): 1.42 ± 0.12 %ID/g
tissue uptake at 1.5 h (in vivo; %ID/g [^68Ga]Ga-DK223, Bladder): 0.78 ± 0.07 %ID/g
tissue uptake at 3 h (in vivo; %ID/g [^68Ga]Ga-DK223, Bladder): 1.28 ± 0.32 %ID/g
tissue uptake at 0.5 h (in vivo; %ID/g [^68Ga]Ga-DK223, Blood): 7.63 ± 0.87 %ID/g
tissue uptake at 1.5 h (in vivo; %ID/g [^68Ga]Ga-DK223, Blood): 2.14 ± 0.08 %ID/g
tissue uptake at 3 h (in vivo; %ID/g [^68Ga]Ga-DK223, Blood): 1.72 ± 0.04 %ID/g
tissue uptake at 0.5 h (in vivo; %ID/g [^68Ga]Ga-DK223, Brain): 0.22 ± 0.05 %ID/g
tissue uptake at 1.5 h (in vivo; %ID/g [^68Ga]Ga-DK223, Brain): 0.05 ± 0.01 %ID/g
tissue uptake at 3 h (in vivo; %ID/g [^68Ga]Ga-DK223, Brain): 0.04 ± 0.01 %ID/g
tissue uptake at 0.5 h (in vivo; %ID/g [^68Ga]Ga-DK223, Femur): 1.74 ± 0.14 %ID/g
tissue uptake at 1.5 h (in vivo; %ID/g [^68Ga]Ga-DK223, Femur): 0.59 ± 0.04 %ID/g
tissue uptake at 3 h (in vivo; %ID/g [^68Ga]Ga-DK223, Femur): 0.64 ± 0.07 %ID/g
tissue uptake at 0.5 h (in vivo; %ID/g [^68Ga]Ga-DK223, Heart): 2.49 ± 0.3 %ID/g
tissue uptake at 1.5 h (in vivo; %ID/g [^68Ga]Ga-DK223, Heart): 0.73 ± 0.03 %ID/g
tissue uptake at 3 h (in vivo; %ID/g [^68Ga]Ga-DK223, Heart): 0.46 ± 0.03 %ID/g
tissue uptake at 0.5 h (in vivo; %ID/g [^68Ga]Ga-DK223, Liver): 2.85 ± 0.41 %ID/g
tissue uptake at 1 h (in vivo; %ID/g [^68Ga]Ga-DK223, Liver): 1.31 ± 0.08 %ID/g
tissue uptake at 1.5 h (in vivo; %ID/g [^68Ga]Ga-DK223, Liver): 0.91 ± 0.11 %ID/g
tissue uptake at 3 h (in vivo; %ID/g [^68Ga]Ga-DK223, Liver): 0.82 ± 0.09 %ID/g
tissue uptake at 0.5 h (in vivo; %ID/g [^68Ga]Ga-DK223, Lung): 11 ± 2.29 %ID/g
tissue uptake at 1.5 h (in vivo; %ID/g [^68Ga]Ga-DK223, Lung): 5.3 ± 1.68 %ID/g
tissue uptake at 3 h (in vivo; %ID/g [^68Ga]Ga-DK223, Lung): 2.98 ± 0.71 %ID/g
tissue uptake at 0.5 h (in vivo; %ID/g [^68Ga]Ga-DK223, Muscle): 0.85 ± 0.09 %ID/g
tissue uptake at 1.5 h (in vivo; %ID/g [^68Ga]Ga-DK223, Muscle): 0.17 ± 0.01 %ID/g
tissue uptake at 3 h (in vivo; %ID/g [^68Ga]Ga-DK223, Muscle): 0.08 ± 0.02 %ID/g
tissue uptake at 0.5 h (in vivo; [9]): 2.01 ± 0.54 %ID/g
tissue uptake at 1 h (in vivo; [9]): 0.45 ± 0.05 %ID/g
tissue uptake at 1.5 h (in vivo; [9]): 0.39 ± 0.01 %ID/g
tissue uptake at 3 h (in vivo; [9]): 0.24 ± 0.03 %ID/g
tissue uptake at 0.5 h (in vivo; %ID/g [^68Ga]Ga-DK223, Spleen): 2.45 ± 0.51 %ID/g
tissue uptake at 1 h (in vivo; %ID/g [^68Ga]Ga-DK223, Spleen): 1.05 ± 0.07 %ID/g
tissue uptake at 1.5 h (in vivo; %ID/g [^68Ga]Ga-DK223, Spleen): 0.71 ± 0.06 %ID/g
tissue uptake at 3 h (in vivo; %ID/g [^68Ga]Ga-DK223, Spleen): 0.58 ± 0.03 %ID/g
tissue uptake at 0.5 h (in vivo; %ID/g [^68Ga]Ga-DK223, Thymus): 7.02 ± 1.06 %ID/g
tissue uptake at 1 h (in vivo; %ID/g [^68Ga]Ga-DK223, Thymus): 3.53 ± 0.27 %ID/g
tissue uptake at 1.5 h (in vivo; %ID/g [^68Ga]Ga-DK223, Thymus): 1.26 ± 0.47 %ID/g
tissue uptake at 3 h (in vivo; %ID/g [^68Ga]Ga-DK223, Thymus): 1.52 ± 0.75 %ID/g
tissue uptake at 0.5 h (in vivo; %ID/g [^68Ga]Ga-DK223, Tumor): 14.3 ± 1.54 %ID/g
tissue uptake at 1.5 h (in vivo; %ID/g [^68Ga]Ga-DK223, Tumor): 12.2 ± 0.32 %ID/g
tissue uptake at 3 h (in vivo; %ID/g [^68Ga]Ga-DK223, Tumor): 11.6 ± 0.79 %ID/g
in vitro uptake (SCaBER cells): less than 2 %IA
%ID/g [^68Ga]Ga-DK223, Kidney (MDAMB231 xenografts [6]; 5 min after injection): 28.59 ± 2.4 %ID/g
%ID/g [^68Ga]Ga-DK223, Kidney (MDAMB231 xenografts [6]; 30 min after injection): 24.4 ± 1.5 %ID/g
%ID/g [^68Ga]Ga-DK223, Kidney (MDAMB231 xenografts [6]; 60 min after injection): 22.99 ± 2.01 %ID/g
%ID/g [^68Ga]Ga-DK223, Kidney (MDAMB231 xenografts [6]; 90 min after injection): 16.23 ± 0.8 %ID/g
%ID/g [^68Ga]Ga-DK223, Kidney (MDAMB231 xenografts [6]; 180 min after injection): 19.14 ± 1.32 %ID/g
tissue uptake at 1 h [7]: 21 ± 2.1 %ID/g
